In ChEMBL document CHEMBL1275577, “Study of the in vitro activities of rifaximin and comparator agents against 536 anaerobic intestinal bacteria from the perspective of potential utility in pathology involving bowel flora” (Antimicrob Agents Chemother, 2009):

Key:
Assay type in all cases: functional
Blautia luti = test: Antimicrobial activity against Ruminococcus luti by Wadsworth agar dilution method
Clostridium bartlettii = test: Antimicrobial activity against Clostridium bartlettii by Wadsworth agar dilution method; conditions: Intestinibacter bartlettii
Bacteroides fragilis = test: Antimicrobial activity against Bacteroides fragilis by Wadsworth agar dilution method
[1] = tested on: Enterocloster clostridioformis; test: Antimicrobial activity against Clostridium clostridioforme by Wadsworth agar dilution method
[2] = tested on: Desulfovibrio desulfuricans; test: Antimicrobial activity against Desulfovibrio desulfuricans by Wadsworth agar dilution method
Prevotella bivia = test: Antimicrobial activity against Prevotella bivia by Wadsworth agar dilution method
[3] = tested on: Peptostreptococcus anaerobius; test: Antimicrobial activity against Peptostreptococcus anaerobius by Wadsworth agar dilution method
Clostridium scindens = test: Antimicrobial activity against Clostridium scindens by Wadsworth agar dilution method
Clostridium bolteae = test: Antimicrobial activity against Clostridium bolteae by Wadsworth agar dilution method; conditions: Enterocloster bolteae
Clostridium hathewayi = test: Antimicrobial activity against Clostridium hathewayi by Wadsworth agar dilution method; conditions: Hungatella hathewayi
Bacteroides nordii = test: Antimicrobial activity against Bacteroides nordii by Wadsworth agar dilution method
Clostridium fallax = test: Antimicrobial activity against Clostridium fallax by Wadsworth agar dilution method
Bifidobacterium dentium = test: Antimicrobial activity against Bifidobacterium dentium by Wadsworth agar dilution method
[4] = tested on: Porphyromonas asaccharolytica; test: Antimicrobial activity against Porphyromonas asaccharolyticus by Wadsworth agar dilution method
Bifidobacterium breve = test: Antimicrobial activity against Bifidobacterium breve by Wadsworth agar dilution method
[5] = tested on: Clostridium paraputrificum; test: Antimicrobial activity against Clostridium paraputrificum by Wadsworth agar dilution method
Propionibacterium avidum = test: Antimicrobial activity against Propionibacterium avidum by Wadsworth agar dilution method; conditions: Cutibacterium avidum
Clostridium septicum = test: Antimicrobial activity against Clostridium septicum by Wadsworth agar dilution method
[6] = tested on: Desulfovibrio fairfieldensis; test: Antimicrobial activity against Desulfovibrio fairfieldensis by Wadsworth agar dilution method
Bacteroides uniformis = test: Antimicrobial activity against Bacteroides uniformis by Wadsworth agar dilution method
Collinsella aerofaciens = test: Antimicrobial activity against Colinsella aerofaciens by Wadsworth agar dilution method
[7] = tested on: Lactobacillus catenaformis; test: Antimicrobial activity against Lactobacillus catenaformis by Wadsworth agar dilution method; conditions: Eggerthia catenaformis
[8] = tested on: Lactiplantibacillus plantarum; test: Antimicrobial activity against Lactobacillus plantarum by Wadsworth agar dilution method
Desulfovibrio sp. = test: Antimicrobial activity against Desulfovibrio sp. by Wadsworth agar dilution method
Eubacterium cylindroides = test: Antimicrobial activity against Eubacterium cylindroides by Wadsworth agar dilution method; conditions: Faecalitalea cylindroides
Atopobium minutum = test: Antimicrobial activity against Atopobium minutum by Wadsworth agar dilution method
Bacteroides ovatus = test: Antimicrobial activity against Bacteroides ovatus by Wadsworth agar dilution method
Porphyromonas somerae = test: Antimicrobial activity against Porphyromonas somerae by Wadsworth agar dilution method
[9] = Antimicrobial activity against Bifidobacterium pseudocatenulatum by Wadsworth agar dilution method
[10] = tested on: Peptoniphilus asaccharolyticus; test: Antimicrobial activity against Peptoniphilus asaccharolyticus by Wadsworth agar dilution method
Fusobacterium sp. = test: Antimicrobial activity against Fusobacterium sp. by Wadsworth agar dilution method
Tissierella praeacuta = test: Antimicrobial activity against Clostridium hastiforme by Wadsworth agar dilution method
Desulfovibrio vulgaris = test: Antimicrobial activity against Desulfovibrio vulgaris by Wadsworth agar dilution method; conditions: Nitratidesulfovibrio vulgaris
Fusobacterium mortiferum = test: Antimicrobial activity against Clostridium rectum by Wadsworth agar dilution method
Ruminococcus gnavus = test: Antimicrobial activity against Ruminococcus gnavus by Wadsworth agar dilution method; conditions: Mediterraneibacter gnavus
Clostridium subterminale = test: Antimicrobial activity against Clostridium subterminale by Wadsworth agar dilution method
Clostridium spiroforme = test: Antimicrobial activity against Clostridium spiroforme by Wadsworth agar dilution method; conditions: Thomasclavelia spiroformis
Clostridium butyricum = test: Antimicrobial activity against Clostridium butyricum by Wadsworth agar dilution method
Bacteroides caccae = test: Antimicrobial activity against Bacteroides caccae by Wadsworth agar dilution method
Eubacterium limosum = test: Antimicrobial activity against Eubacterium limosum by Wadsworth agar dilution method
Clostridium sporogenes = test: Antimicrobial activity against Clostridium sporogenes by Wadsworth agar dilution method
[11] = tested on: Bifidobacterium adolescentis; test: Antimicrobial activity against Bifidobacterium adolescentis by Wadsworth agar dilution method
Bifidobacterium longum = test: Antimicrobial activity against Bifidobacterium longum by Wadsworth agar dilution method
Holdemania filiformis = test: Antimicrobial activity against Holdemania filiformis by Wadsworth agar dilution method
[12] = tested on: Fusobacterium necrophorum; test: Antimicrobial activity against Fusobacterium necrophorum by Wadsworth agar dilution method
Bifidobacterium bifidum = test: Antimicrobial activity against Bifidobacterium bifidum by Wadsworth agar dilution method
Finegoldia magna = test: Antimicrobial activity against Finegoldia magna by Wadsworth agar dilution method
Porphyromonas = test: Antimicrobial activity against Porphyromonas sp. by Wadsworth agar dilution method

CN[C@H](CC(C)C)C(=O)N[C@H]1C(=O)N[C@@H](CC(N)=O)C(=O)N[C@H]2C(=O)N[C@H]3C(=O)N[C@H](C(=O)N[C@H](C(=O)O)c4cc(O)cc(O)c4-c4cc3ccc4O)[C@H](O)c3ccc(c(Cl)c3)Oc3cc2cc(c3O[C@@H]2O[C@H](CO)[C@@H](O)[C@H](O)[C@H]2O[C@H]2C[C@](C)(N)[C@H](O)[C@H](C)O2)Oc2ccc(cc2Cl)[C@H]1O [VANCOMYCIN]
64 µg/mL: MIC50 (Bacteroides fragilis) | MIC (Bacteroides nordii) | MIC50 (Bacteroides nordii) | MIC90 (Bifidobacterium dentium) | MIC90 (Bifidobacterium breve) | MIC90 (Propionibacterium avidum) | MIC (Bacteroides uniformis) | MIC50 (Bacteroides uniformis) | MIC90 (Collinsella aerofaciens) | MIC90 [7] | MIC90 [8] | MIC90 (Eubacterium cylindroides) | MIC90 (Atopobium minutum) | MIC90 [9] | MIC90 (Bacteroides caccae) | MIC90 (Eubacterium limosum) | MIC90 [11] | MIC90 (Bifidobacterium longum) | MIC90 (Holdemania filiformis) | MIC90 (Bifidobacterium bifidum)
> 1020 µg/mL: MIC50 [2] | MIC90 [2] | MIC50 [6] | MIC90 [6] | MIC50 (Desulfovibrio sp.) | MIC90 (Desulfovibrio sp.) | MIC90 (Fusobacterium sp.) | MIC50 (Desulfovibrio vulgaris) | MIC90 (Desulfovibrio vulgaris) | MIC90 [12]
2 µg/mL: MIC50 [1] | MIC90 [1]
256 µg/mL: MIC90 (Prevotella bivia) | MIC50 (Fusobacterium sp.) | MIC50 [12]
1 µg/mL: MIC90 (Blautia luti) | MIC50 (Clostridium bartlettii) | MIC90 [3] | MIC50 (Clostridium scindens) | MIC50 (Clostridium bolteae) | MIC50 (Clostridium hathewayi) | MIC90 (Clostridium hathewayi) | MIC50 (Clostridium fallax) | MIC50 (Bifidobacterium dentium) | MIC50 (Bifidobacterium breve) | MIC50 [5] | MIC50 (Propionibacterium avidum) | MIC50 (Clostridium septicum) | MIC50 (Collinsella aerofaciens) | MIC50 [7] | MIC50 [8] | MIC50 (Eubacterium cylindroides) | MIC50 (Atopobium minutum) | MIC50 [9] | MIC90 [10] | MIC50 (Tissierella praeacuta) | MIC50 (Fusobacterium mortiferum) | MIC90 (Ruminococcus gnavus) | MIC50 (Clostridium subterminale) | MIC50 (Clostridium spiroforme) | MIC50 (Clostridium butyricum) | MIC50 (Eubacterium limosum) | MIC50 (Clostridium sporogenes) | MIC50 [11] | MIC50 (Bifidobacterium longum) | MIC50 (Holdemania filiformis) | MIC50 (Bifidobacterium bifidum) | MIC90 (Finegoldia magna)
128 µg/mL: MIC90 (Bacteroides fragilis) | MIC50 (Prevotella bivia) | MIC90 (Bacteroides nordii) | MIC90 (Bacteroides uniformis) | MIC50 (Bacteroides ovatus) | MIC90 (Bacteroides ovatus)
4 µg/mL: MIC90 (Clostridium bartlettii) | MIC90 (Clostridium scindens) | MIC90 (Clostridium bolteae) | MIC90 (Clostridium fallax) | MIC50 [4] | MIC90 [5] | MIC90 (Clostridium septicum) | MIC50 (Porphyromonas somerae) | MIC90 (Tissierella praeacuta) | MIC90 (Fusobacterium mortiferum) | MIC90 (Clostridium subterminale) | MIC90 (Clostridium spiroforme) | MIC90 (Clostridium butyricum) | MIC90 (Clostridium sporogenes) | MIC50 (Porphyromonas)
8 µg/mL: MIC90 [4] | MIC90 (Porphyromonas somerae) | MIC90 (Porphyromonas)
32 µg/mL: MIC50 (Bacteroides caccae)
0.5 µg/mL: MIC50 (Blautia luti) | MIC50 [3] | MIC50 [10] | MIC50 (Ruminococcus gnavus) | MIC50 (Finegoldia magna)
